Data from US12636259B2, “Transdermal absorption preparation” (Sumitomo Pharma Co., Ltd., priority 2020, dated 2026).

Assay: Saturation solubility measurement of compound A in additives
Type: physicochemical
Conditions: room temperature
Procedure: Various additives were weighed into a vial, compound A was added until it was no longer dissolved, and the mixture was stirred overnight at room temperature. The mixture was filtered using a 0.45 μm PTFE filter and the concentration of compound A in the filtrate was quantified by high performance liquid chromatography (ODS column, UV detector). When the concentration of compound A exceeded 20%, the addition of compound A was stopped.

O=C1[C@@H]2[C@H]3CC[C@H](C3)[C@@H]2C(=O)N1CCCCN1CCN(c2ncccn2)CC1 [compound A, (1R,2S,3R,4S)—N-[4-[4-(pyrimidin-2-yl)piperazin-1-yl]butyl]-2,3-bicyclo[2.2.1]heptan dicarboxyimide]
saturation solubility of compound A (tandospirone) (additive: N-methyl-2-pyrrolidone): 15.4%
saturation solubility of compound A (tandospirone) (additive: diisopropyl adipate): 2.0%
saturation solubility of compound A (tandospirone) (additive: dipropylene glycol): 1.6%
saturation solubility of compound A (tandospirone) (additive: isopropyl myristate): 0.6%
saturation solubility of compound A (tandospirone) (additive: lactic acid, stirred overnight, drug addition stopped when solubility exceeded 20%): not less than 20%
saturation solubility of compound A (tandospirone) (additive: lauromacrogol (4)): 2.0%
saturation solubility of compound A (tandospirone) (additive: levulinic acid, drug addition stopped when solubility exceeded 20%): not less than 20%
saturation solubility of compound A (tandospirone) (additive: oleic acid, drug addition stopped when solubility exceeded 20%): not less than 20%
saturation solubility of compound A (tandospirone) (additive: oleyl alcohol): 1.0%
saturation solubility of compound A (tandospirone) (additive: polysorbate 20): 1.4%
saturation solubility of compound A (tandospirone) (additive: polysorbate 80): 1.4%
saturation solubility of compound A (tandospirone) (additive: propylene glycol fatty acid diester (C8)): 1.3%
saturation solubility of compound A (tandospirone) (additive: propylene glycol fatty acid ester (C8)): 5.0%
saturation solubility of compound A (tandospirone) (additive: propylene glycol fatty acid ester (C12)): 5.9%
saturation solubility of compound A (tandospirone) (additive: sorbitan monolaurate, measured as mixed solution isopropyl myristate/sorbitan monolaurate = 50/50): 2.3%
